Test: xn = mol fraction of the nth substance listed
Conditions: 101 kPa, Liquid, Voltage change across transformer (no electrode)

CCCC[n+]1ccccc1.F[B-](F)(F)F [1-butylpyridinium tetrafluoroborate] + CO
electrical conductivity [S/m]
Conditions	293.15 K	303.15 K	313.15 K	323.15 K
x1 = 0.0432	2.87	3.37	3.91	4.28
x1 = 0.0485	2.98	3.51	3.95	4.62
x1 = 0.0698	3.21	3.82	4.45	5.11
x1 = 0.0901	3.45	4.17	4.89	5.46
x1 = 0.1091	3.71	4.39	5.14	5.81
x1 = 0.1252	3.75	4.54	5.35	6.06
x1 = 0.142	3.82	4.61	5.45	6.12
x1 = 0.1629	3.79	4.59	5.49	6.19
x1 = 0.1773	3.78	4.57	5.38	6.12
x1 = 0.2273	3.47	4.3	5.16	6.01
x1 = 0.2401	3.43	4.26	5.13	5.94
x1 = 0.2966	3.14	3.99	4.81	5.59
x1 = 0.3803	2.37	3.05	3.72	4.51
x1 = 0.4277	2.07	2.71	3.39	4.08
x1 = 0.4808	1.75	2.29	2.89	3.49
x1 = 0.5618	1.2	1.72	2.22	2.77
x1 = 0.6317	0.894	1.35	1.81	2.35
x1 = 0.698	0.74	1.07	1.45	1.89
x1 = 0.8355	0.406	0.647	0.966	1.39
x1 = 0.879	0.321	0.514	0.776	1.12
x1 = 0.9279	0.27	0.446	0.684	0.976
x1 = 1	0.181	0.321	0.519	0.785
